This is an account of results in patent US20240108614A1, “Methods of Treating Diabetic Cardiomyopathy by Inhibiting GLUT1” (University of Cincinnati, priority 2022, published 2024).

Holding throughout (assay type): in vivo
Assay [1] has as its system type 1 diabetic mice. The assay can be described thus: Type 1 diabetes mouse model, treatment started after cardiac dysfunction was confirmed (6 weeks) until the twelfth week. The method, then:
(§1) To evaluate the impact of GLUT1 and myocardial glucose content changes on cardiac function and structure, 2D echocardiography was performed to measure EF, FS, end-diastolic and end-systolic volumes (EDV, ESV), stroke volume (SV), and cardiac output (CO) using M-mode short axis images, automatic tracing, myocardial strain and strain rate with speckle tracking. From the pulsed wave Doppler spectral waveforms, the peak early and late diastolic transmitral velocities (E, A waves) were measured to obtain the E/A ratio.
In another mouse cohort, treatment with either STF-31 or dapa started after cardiac dysfunction was confirmed (6 weeks of type 1 diabetes) and continued until the twelfth week. This treatment corrected both systolic (FIG. 4D) and diastolic (FIG. 4E) dysfunction. Importantly, treatment with either STF-31 or dapa prevented upregulation of KLF5. Thus, inhibition of GLUT1 appears as a novel therapeutic target for diabetic cardiomyopathy that prevents activation of the cardiotoxic FOXO1-KLF5 axis.

Assay [2] concerns type 1 diabetic mice. The assay can be described thus: Type 1 diabetes mouse model, treatment over twelve weeks (prevention), 2D echocardiography. The method, then:
To explore whether GLUT1 inhibition holds therapeutic potential against diabetic cardiomyopathy, diabetic mice were treated with a GLUT1 inhibitor (STF-31). Specifically, type 1 diabetes was induced in WT mice and mice were monitored for twelve weeks.
as §1
One group of mice was treated with STF-31 for the entire twelve-weeks period.
Prior to this disclosure, treatment of diabetic patients with SGLT2 inhibitors (dapa or empagliflozin), has shown the most robust cardioprotective effects. Treatment of diabetic mice with dapa corrected hyperglycemia (FIG. 4A) and prevented systolic (FIG. 4B) and diastolic heart failure (FIG. 4C) in both early and late type 1 diabetes.

In assay [3] the test system is type 2 diabetic mice (HFD). The assay can be described thus: Type 2 diabetes mouse model (high-fat diet 32 weeks, then 8 weeks of treatment). The note with it: HFD type 2 diabetes mice. An excerpt:
Similar results were shown in mouse models of type 2 diabetes, wherein mice were fed a high-fat diet (HFD) for 32 weeks prior to initiating 8 weeks of treatment with SFT-31.

Setting [4] is: treatment from 6 weeks of type 1 diabetes until twelfth week, after confirmed cardiac dysfunction.

`CC(C)(C)c1ccc(S(=O)(=O)NCc2ccc(C(=O)Nc3cccnc3)cc2)cc1` [STF-31]: in assay [1] (setting [4]), the diastolic dysfunction entry is “corrected” and the systolic dysfunction entry is recorded as “corrected”. Besides, in assay [1] (type 1 diabetic mice), the “upregulation of KLF5” value is on record as “prevented”. Also, in assay [2], the “diastolic dysfunction (mitral valve E/A ratio)” value was “did not develop”, the “plasma glucose levels (hyperglycemia)” value is recorded as “persistent hyperglycemia” and the systolic dysfunction entry was “did not develop”. In addition, in assay [3], the KLF5 upregulation entry is listed as “prevented”, the diastolic dysfunction entry is recorded as “did not develop”, the hyperglycemia result is listed as “persistent hyperglycemia” and the systolic dysfunction entry was “did not develop”.
